Reference: patent publication US20040116330A1, “Preventive/therapeutic method for cancer” (priority 2001, published 2004)

Row | SMILES | melting point [°C]
1 | Cc1cccc(/C=C/c2nc(COc3ccc(CCCCn4ccnc4CCO)cc3)co2)c1 [Compound B11, 2-[1-[4-[4-[[2-[(E)-2-(3-methylphenyl)ethenyl]-1,3-oxazol-4-yl]methoxy]phenyl]butyl]-1H-imidazol-2-yl]-1-ethanol] | 109 to 111
2 | OCCc1nccn1CCCCc1ccc(OCc2coc(/C=C/c3ccc(F)cc3)n2)cc1 [Compound B14, 2-(1-{4-[4-({2-[(E)-2-(4-fluorophenyl)ethenyl]-1,3-oxazol-4-yl}methoxy)phenyl]butyl)-1H-imidazol-2-yl)-1-ethanol] | 130 to 132
3 | FC(F)(F)c1ccc(/C=C/c2nc(COc3cccc(CCCn4ccnn4)c3)co2)cc1 [Compound B6, 1-(3-{3-[(2-((E)-2-[4-(trifluoromethyl)phenyl]ethenyl}-1,3-oxazol-4-yl)methoxy]phenyl}propyl)-1H-1,2,3-triazole] | 115 to 116
4 | FC(F)(F)c1ccc(/C=C/c2nc(COc3ccc(CCCn4ccnn4)cc3)co2)cc1 [Compound B5, 1-(3-{4-[(2-((E)-2-[4-(trifluoromethyl)phenyl]ethenyl)-1,3-oxazol-4-yl)methoxy]phenyl)propyl)-1H-1,2,3-triazole] | 157 to 158
5 | OCC(O)Cc1nccn1CCCCc1ccc(OCc2coc(/C=C/c3ccc(F)cc3)n2)cc1 (stereo not shown) [Compound B23, 3-(1-{4-[4-({2-[(E)-2-(4-fluorophenyl)ethenyl]-1,3-oxazol-4-yl}methoxy)phenyl]butyl}-1H-imidazol-2-yl)-1,2-propanediol] | 114 to 116
6 | OCC(O)Cc1nccn1CCCCc1ccc(OCc2coc(/C=C/c3ccc(F)cc3F)n2)cc1 (stereo not shown) [Compound B26, 3-(1-{4-[4-({2-[(E)-2-(2,4-difluorophenyl)ethenyl]-1,3-oxazol-4-yl)methoxy)phenyl]butyl}-1H-imidazol-2-yl)-1,2-propanediol] | 126 to 128
7 | OCCc1nccn1CCCCc1ccc(OCc2coc(/C=C/c3ccc(F)cc3F)n2)cc1 [Compound B19, 2-[1-[4-[4-[[2-[(E)-2-(2,4-difluorophenyl)ethenyl]-1,3-oxazol-4-yl]methoxy]phenyl]butyl]-1H-imidazol-2-yl]-1-ethanol] | 93 to 95
8 | Fc1ccc(/C=C/c2nc(COc3cccc(CCCn4ccnn4)c3)co2)cc1 [Compound B3, 1-{3-[3-({2-[(E)-2-(4-fluorophenyl)ethenyl]-1,3-oxazol-4-yl}methoxy)phenyl]propyl}-1H-1,2,3-triazole] | 105 to 106
9 | OCC(O)Cc1nccn1CCCCc1ccc(OCc2coc(/C=C/c3c(F)cccc3F)n2)cc1 (stereo not shown) [Compound B28, 3-[1-[4-[4-[[2-[(E)-2-(2,6-difluorophenyl)ethenyl]-1,3-oxazol-4-yl]methoxy]phenyl]butyl]-1H-imidazol-2-yl]-1,2-propanediol] | 123 to 125
10 | Cc1cccc(/C=C/c2nc(COc3ccc(CCCCn4ccnc4CC(O)CO)cc3)co2)c1 (stereo not shown) [Compound B22, 3-(1-{4-[4-({2-[(E)-2-(3-methylphenyl)ethenyl]-1,3-oxazol-4-yl}methoxy)phenyl]butyl}-1H-imidazol-2-yl)-1,2-propanediol] | 102 to 104
11 | CCc1ccc(/C=C/c2nc(COc3ccc(CCCCn4ccnc4CCO)cc3)co2)cc1 [Compound B13, 2-[1-[4-[4-[[2-[(E)-2-(4-ethylphenyl)ethenyl]-1,3-oxazol-4-yl]methoxy]phenyl]butyl]-1H-imidazol-2-yl]-1-ethanol] | 94 to 95
12 | OCCc1nccn1CCCCc1ccc(OCc2coc(/C=C/c3ccc(Cl)cc3)n2)cc1 [Compound B15, 2-[1-[4-[4-[[2-[(E)-2-(4-chlorophenyl)ethenyl]-1,3-oxazol-4-yl]methoxy]phenyl]butyl]-1H-imidazol-2-yl]-1-ethanol] | 127 to 128
13 | Fc1ccc(/C=C/c2nc(COc3ccc(CCCCn4ccnn4)cc3)co2)c(F)c1 [Compound B7, 1-{4-[4-({2-[(E)-2-(2,4-difluorophenyl)ethenyl]-1,3-oxazol-4-yl}methoxy)phenyl]butyl}-1H-1,2,3-triazole] | 115 to 117
14 | Fc1ccc(/C=C/c2nc(COc3cccc(CCCn4ccnn4)c3)co2)c(F)c1 [Compound B8, 1-{3-[3-({2-[(E)-2-(2,4-difluorophenyl)ethenyl]-1,3-oxazol-4-yl}methoxy)phenyl]propyl}-1H-1,2,3-triazole] | 89 to 90
15 | OCCc1nccn1CCCc1ccc(OCc2coc(/C=C/c3ccc(F)cc3F)n2)cc1 [Compound B20, 2-[1-[3-[4-[[2-[(E)-2-(2,4-difluorophenyl)ethenyl]-1,3-oxazol-4-yl]methoxy]phenyl]propyl]-1H-imidazol-2-yl]-1-ethanol] | 94 to 96
16 | Cc1ccccc1/C=C/c1nc(COc2ccc(CCCCn3ccnc3CCO)cc2)co1 [Compound B12, 2-[1-[4-[4-[[2-[(E)-2-(2-methylphenyl)ethenyl]-1,3-oxazol-4-yl]methoxy]phenyl]butyl]-1H-imidazol-2-yl]-1-ethanol] | 91 to 93
17 | OCCc1nccn1CCCCc1ccc(OCc2coc(/C=C/c3ccc(Br)cc3)n2)cc1 [Compound B16, 2-[1-[4-[4-[[2-[(E)-2-(4-bromophenyl)ethenyl]-1,3-oxazol-4-yl]methoxy]phenyl]butyl]-1H-imidazol-2-yl]-1-ethanol] | 149 to 150
18 | Cc1ccc(/C=C/c2nc(COc3ccc(CCCCn4ccnc4CCO)cc3)co2)cc1 [Compound B10, 2-[1-[4-[4-[[2-[(E)-2-(4-methylphenyl)ethenyl]-1,3-oxazol-4-yl]methoxy]phenyl]butyl]-1H-imidazol-2-yl]-1-ethanol] | 108 to 109
19 | OCC(O)Cc1nccn1CCCCc1ccc(OCc2coc(/C=C/c3ccc(C(F)(F)F)cc3)n2)cc1 (stereo not shown) [Compound B24, 3-[1-(4-(4-[(2-{(E)-2-[4-(trifluoromethyl)phenyl]ethenyl)-1,3-oxazol-4-yl)methoxy]phenyl}butyl)-1H-imidazol-2-yl]-1,2-propanediol] | 142 to 143
20 | Fc1ccc(/C=C/c2nc(COc3ccc(CCCCn4ccnn4)cc3)co2)cc1 [Compound B2, 1-{4-[4-({2-[(E)-2-(4-fluorophenyl)ethenyl]-1,3-oxazol-4-yl}methoxy)phenyl]butyl}-1H-1,2,3-triazole] | 124 to 125
21 | OCC(O)Cc1nccn1CCCc1cccc(OCc2coc(/C=C/c3ccc(C(F)(F)F)cc3)n2)c1 (stereo not shown) [Compound B25, 3-[1-(3-{3-[(2-{(E)-2-[4-(trifluoromethyl)phenyl]ethenyl}-1,3-oxazol-4-yl)methoxy]phenyl]propyl)-1H-imidazol-2-yl]-1,2-propanediol] | 102 to 104
22 | OCC(O)Cc1nccn1CCCc1cccc(OCc2coc(/C=C/c3ccc(F)cc3F)n2)c1 (stereo not shown) [Compound B27, 3-(1-{3-[3-({2-[(E)-2-(2,4-difluorophenyl)ethenyl]-1,3-oxazol-4-yl}methoxy)phenyl]propyl}-1H-imidazol-2-yl)-1,2-propanediol] | 92 to 94
